According to patent US20030017568A1, “Smooth muscle myosin phosphatase associated kinase” (priority 2001, published 2003):

How the values were obtained:
[1] = test system: ZIP-like-kinase (SMPP-1M associated kinase, MYPT-kinase); experiment: In vitro kinase assay against the Thr697 peptide, native ZIP-like-kinase (MYPT-kinase) compared with ROK; type: biochemical, cow; settings: levels needed versus ROK
Procedure: Kinase and phosphatase assays. Kinase assays included 10 μL of enzyme diluted in 25 mM Hepes, pH 7.4, 1 mM DTT, and 100 μM Thr^697 peptide. Reactions were started with addition of 20 μL Mg^2+ ATP (5 mM MgCl2 and 0.1 mM ATP (5000 cpm/nmol) and carried out at 25° C. Reactions were terminated after 20 min with the addition of 100 μL of 20 mM H3PO4. Aliquots (100 μL) of the reaction mixture were spotted on to P81 paper and washed four times with 20 mM H3PO4. The P81 paper was placed into 1.5 mL Eppendorf tubes and ^32P incorporation was determined by scintillation counting. Phosphatase assays were carried out as described (Shirazi et al, J. Biol. Chem. 269:31598-31606 (1994)).
Purification of the SMPP-1M associated kinase. The SMPP-1M associated kinase was isolated from cow bladders following initial steps outlined for purification of SMPP-1M from pig bladder (Shirazi et al, J. Biol. Chem. 269:31598-31606 (1994)). Following extraction of the myofibrillar pellet, the extract was diluted with 2 volumes of buffer C (20 mM Tris, pH 7.5, 25 mM MgCl2, and 1 mM DTT with protease inhibitors), clarified by centrifugation (100,000 g, 45 min) and applied to a 5.0×10-cm column of ethylenediamine γ-linked ATP Sepharose equilibrated in buffer C. […] The purity of SMPP-1M kinase was assessed by SDS-PAGE and silver staining.

ZIP-like-kinase = ZIP-like-kinase activity and phosphorylation in treated rabbit bladder smooth muscle (immunoprecipitates); type: cell-based
ROK = settings: hypertensive mice; cited from earlier work
MYPT1 = MYPT1 phosphorylation in 32P-labeled intact smooth muscle (rabbit bladder); type: cell-based; settings: carbachol stimulation

SMILES: C[C@@H](N)[C@H]1CC[C@H](C(=O)Nc2ccncc2)CC1 [Y-27632]
- Inhibition of native ZIP-like-kinase (MYPT-kinase): levels relative to those for ROK [1]: 200 fold
- Inhibition of ZIP-like-kinase activity (ZIP-like-kinase; 10 μM, carbachol and calyculin A treated bladder): significant inhibition
- Blood pressure (ROK): decreased blood pressure

SMILES: COC[C@@H]([C@H](O)[C@H](O)C(=O)NCC[C@H](C)c1nc(/C=C/C[C@@H]2O[C@]3(C[C@@H](O)[C@@H]2C)O[C@H]([C@H](C[C@H](O)[C@H](C)[C@H](O)[C@H](C)/C=C(C)/C(C)=C/C=C/C(C)=C\C#N)OC)[C@H](OP(=O)(O)O)C3(C)C)co1)N(C)C [calyculin A]
- Reduction of ZIP-like-kinase activation in the absence of calyculin A (ZIP-like-kinase; carbachol-treated bladder without calyculin A): about 50%

SMILES: C[N+](C)(C)CCOC(N)=O [carbachol]
- ZIP-like-kinase phosphorylation and activation (ZIP-like-kinase): phosphorylated and activated
- MYPT1 phosphorylation state (four phosphopeptides; major site Thr697) (MYPT1): increased
